Reference: patent publication US20210072244A1, “METHODS AND COMPOSITIONS FOR TREATING MELANOMA RESISTANT” (INSERM (INSTITUT NATIONAL DE LA SANTÉ ET DE LA RECHERCHE …, priority 2018, published 2021)
Read-outs that look alike come from different tables or passages of the source.

Key:
[1] = tested on: intracellular NAD+ in melanoma cells; experiment: Intracellular NAD+ measurement (NAD/NADH Quantitation Kit); type: cell-based, human; conditions: for intracellular NAD+ levels: 5 μM, 24 h (FIG. 1B)
Experimental: Human melanoma cell lines and short-term cultures derived from different patients with metastatic malignant melanoma cells were grown in DMEM supplemented with 7% FBS at 37° C. in a humidified atmosphere containing 5% CO2. PLX4032-sensitive and PLX4032-resistant melanoma cells were previously described (Bonet et al. 2012; Ohanna et al. 2014). Lipofectamine™ RNAiMAX and opti-MEM medium were purchased from Invitrogen (San Diego, Calif., USA). FK866 was obtained from Sigma, U0126 and GSK1120212 were purchased from Euromedex, and PD98059 and SCH77294 were obtained from Selleck Chemicals. The STAT5 inhibitor (CAS 285986-31-4) was purchased from Sigma. Intracellular NAD+ was measured using the NAD/NADH Quantitation Kit from Sigma according to the manufacturer's instructions.

[2] = tested on: BRAFV600E human melanoma cells; experiment: Cell proliferation / viability (cell counting), BRAFV600E cells; type: cell-based
Experimental: (§1) The cells were seeded onto 12-well dishes (10×10^3 cells), and at 48 h post transfection or treatment, the cells were trypsinized from days 1 to 4, counted in triplicate using a hemocytometer. The experiments were performed at least three times.

NAMPT [3] = experiment: NAMPT expression in melanoma cells (Western blot, QPCR); type: cell-based, human
Experimental: The proteins were visualized using the ECL system (Amersham).
The mRNA was isolated using TRIzol (Invitrogen) according to a standard procedure. QRT-PCR was performed using SYBR® Green I (Eurogentec, Seraing, Belgium) and Multiscribe Reverse Transcriptase (Applied Biosystems) and subsequently monitored using the ABI Prism 7900 Sequence Detection System (Applied Biosystems, Foster City, Calif.). The detection of the SB34 gene was used to normalize the results. Primer sequences for each cDNA were designed using either Primer Express Software (Applied Biosystems) or qPrimer depot (http://primerdepot.nci.nih.gov), and these sequences are available upon request.

[4] = tested on: WM9 melanoma cell xenograft; experiment: WM9 melanoma xenograft growth in nude mice; type: in vivo; conditions: 15 mg/kg every two days, athymic nude mice, versus vehicle, FIG. 4C
Experimental: (§2) Animal experiments were performed in accordance with French law and approved by a local institutional ethical committee. The animals were maintained in a temperature controlled facility (22° C.) on a 12-h light/dark cycle and provided free access to food (standard laboratory chow diet from UAR, Epinay-S/Orge, France). Human WM9 melanoma cells, responsive or resistant to PLX4032 (2×10^6 cells), were subcutaneously inoculated into 8-week-old female, immune-deficient, athymic, nude FOXN1nu mice (Harlan Laboratory). When the tumors became palpable (0.1-0.2 cm3), the mice received an intraperitoneal injection of PLX4032 (25 mg/kg), FK866 (15 mg/kg) or both drugs dissolved in a mixture of Labrafil M1944 Cs, dimethylacetamide, and Tween 80 (90:9:1, v/v/v) three times per week. Control mice were injected with Labrafil alone. The growth tumor curves were determined after measuring the tumor volume using the equation V=(L×W2)/2. At the end of the experiment, the mice were euthanized by cervical dislocation, and the tumors were harvested for immunofluorescence.

[5] = Body weight of treated mice; type: in vivo; conditions: FK866 15 mg/kg, not shown
Experimental: as §2

[6] = tested on: BRAFi-resistant A375 (A375R) and WM9 (WM9R) melanoma cells; experiment: Proliferation and PLX4032 sensitivity of BRAFi-resistant melanoma cells; type: cell-based, human
Experimental: as §1

[7] = tested on: BRAFi-resistant WM9 melanoma cell xenografts; experiment: PLX4032-resistant WM9 (WM9R) xenograft growth in nude mice; type: in vivo; conditions: FIG. 5F
Experimental: as §2

[8] = tested on: A375R melanoma cell xenografts; experiment: PLX4032-resistant A375 (A375R) xenograft growth in mice; type: in vivo
ERK = ERK phosphorylation (Western blot); type: cell-based, human; conditions: for ERK phosphorylation levels: A375 melanoma cells, data not shown; for ERK phosphorylation: A375 and WM9 cells
Experimental: (§3) Western blotting was performed as previously described (Hilmi et al. 2008; Bertolotto et al. 2011). Briefly, cell lysates (30 μg) were separated using SDS-PAGE, transferred onto a PVDF membrane and subsequently exposed to the appropriate antibodies, anti-ERK2 (Santa Cruz Biotechnology, sc-1647 clone D-2), anti-phospho-ERK1/2 (Thr202/Tyr204) (Cell Signaling Technology Inc., #2370), anti-BRAF (Santa Cruz Biotechnology, sc-5284 clone F-7), anti-NAMPT (Sigma, #B5812), antiphospho-STAT5 (Tyr694) (Ozyme #9351), anti-STAT5 (Ozyme #9363), and anti-HSP90 (Santa Cruz biotechnology, #sc-13119). The proteins were visualized using the ECL system (Amersham). The western blots shown are representative of at least 3 independent experiments.

NAMPT [9] = conditions: public microarray data GSE51115, melanoma cell lines; cited from earlier work
[10] = tested on: UACC62 and WM9 human melanoma cell lines (BRAFV600E); experiment: Global metabolic profiling by UPLC-MS/MS; type: cell-based; conditions: FIG. 1A
Experimental: Briefly, samples were prepared using the automated MicroLab STAR® system (Hamilton Company). Recovery standards were added prior to the first step in the extraction process for QC purposes. Cell lysates were precipitated using methanol under vigorous shaking for 2 min, followed by centrifugation. The resulting extract was divided into five fractions: two samples for analysis using two separate reversephase (RP)/UPLC-MS/MS methods with positive ion mode electrospray ionization (ESI), one sample for analysis through RP/UPLC-MS/MS with negative ion mode ESI, one sample for analysis through HILIC/UPLC-MS/MS with negative ion mode ESI, and one sample was reserved for backup. The samples were briefly placed on a TurboVap® (Zymark) to remove the organic solvent. The sample extracts were stored overnight under nitrogen prior to preparation for analysis. Chromatography analyses were performed using Waters ACQUITY ultra-performance liquid chromatography (UPLC) and a Thermo Scientific Q-Exactive high resolution/accurate mass spectrometer interfaced with a heated electrospray ionization (HESI-II) source and Orbitrap mass analyzer operated at 35,000 mass resolution. The sample extract was dried and subsequently reconstituted in solvents compatible to each method (Miller et al. 2015). […]

[11] = tested on: BRAFWT human melanoma cells; experiment: Cell proliferation (cell counting), BRAFWT cells; type: cell-based; conditions: data not shown
Experimental: as §1

STAT5 = STAT5 phosphorylation (Western blot); type: cell-based, human; conditions: A375 and WM9 cells
Experimental: as §3

human NAMPT promoter = experiment: NAMPT promoter luciferase reporter assay; type: cell-based
[12] = A375 melanoma cells, data not shown

Which “intracellular levels of NAD+” value ([1]; A375 and WM9 melanoma cell lines, FIG. 4A) does the source give for `O=C(/C=C/c1cccnc1)NCCCCC1CCN(C(=O)c2ccccc2)CC1` [FK866] here?
Its value is “dramatically decreased”.

What about the cell proliferation ([2]; A375 and WM9 melanoma cells, counted each day, FIG. 4B) of the same compound?
The cell proliferation was “impaired cell proliferation”.

What about the NAMPT expression (NAMPT [3]; A375 and WM9 cells, NAMPT siRNA or FK866) of the same compound?
Its NAMPT expression is “did not affect”.

And the “WM9 melanoma cell xenograft growth” value [4]?
Its value is “impaired”.

What about the “weight loss in the treated mice” value [5] of the same compound?
Its value is “no weight loss”.

What about the “PLX4032 sensitivity in BRAFi-resistant cells” value ([6]; A375R and WM9R, PLX4032 5 μM) of the same compound?
Its value is “restored PLX4032 sensitivity”.

And the melanoma cell death ([6]; BRAFi-resistant melanoma cells, both in vitro and in vivo)?
Its melanoma cell death is “caused melanoma cell death”.

What about the “tumor growth of BRAFi-resistant WM9 xenografts” value [7] of the same compound?
Its value is “inhibited tumor growth”.

What about the “melanoma progression (A375R xenograft)” value ([8]; FK866 1.5 mg/kg and 15 mg/kg, FIG. 5E) of the same compound?
The value was “dose-dependently reduced”.

What about the “NAD+ in treated tumors” value ([8]; FK866-treated tumors, data not shown) of the same compound?
The value was “reduction”.

Which NAMPT expression (NAMPT [3]; [12]) does the source give for `CC(=O)Nc1cccc(-n2c(=O)n(C3CC3)c(=O)c3c(Nc4ccc(I)cc4F)n(C)c(=O)c(C)c32)c1` [GSK1120212] here?
Its NAMPT expression is “inhibition of NAMPT expression”.

And the ERK phosphorylation levels (ERK)?
The ERK phosphorylation levels was “inhibition of ERK phosphorylation levels”.

Which results are given for `COc1cccc(-c2cc(=O)c3ccccc3o2)c1N` [PD98059]?
NAMPT expression (NAMPT [3]; [12]): inhibition of NAMPT expression; ERK phosphorylation levels (ERK): inhibition of ERK phosphorylation levels

For `O=C(NOC[C@H](O)CO)c1ccc(F)c(F)c1Nc1ccc(I)cc1F` [PD0325901], which NAMPT expression (NAMPT [9]) is on record?
The NAMPT expression was “inhibition of NAMPT expression”.

What does the source list for `CCCS(=O)(=O)Nc1ccc(F)c(C(=O)c2c[nH]c3ncc(-c4ccc(Cl)cc4)cc23)c1F` [PLX4032]?
nicotinamide adenine dinucleotide (NAD+) levels [10]: reduced; intracellular NAD+ levels ([1]; BRAFWT human melanoma cells): not in BRAFWT human melanoma cells; intracellular NAD+ levels ([1]; all BRAFV600E-mutated melanoma cell lines and short-term cultures): reduced intracellular NAD+ levels; viability ([2]; A375 and WM9 melanoma cells, 5 μM, 72 h (FIG. 5B)): inhibited the viability; cell proliferation ([2]; BRAFV600E human melanoma cells, data not shown): inhibited cell proliferation; cell proliferation [11]: not in BRAFWT human melanoma cells; NAMPT expression, protein level (NAMPT [3]; 4 different BRAFV600E melanoma cells, data not shown): reduced NAMPT expression; NAMPT expression, mRNA level (NAMPT [3]; BRAFV600E melanoma cells, QPCR, FIG. 2A): reduced NAMPT expression; NAMPT expression (NAMPT [3]; BRAFWT human melanoma cells, data not shown): No inhibition; ERK phosphorylation (ERK): inhibited; STAT5 phosphorylation (STAT5): inhibited; NAMPT promoter activity (human NAMPT promoter; A375 and WM9 cells, FIGS. 3A-B): dose-dependent decrease; NAMPT promoter activity, significance over doses (human NAMPT promoter; A375 cells, 48 h, p<0.0034): all the PLX4032 doses lead to significant decrease; PLX4032 dose giving significant decrease in NAMPT promoter activity (human NAMPT promoter; WM9 cells, 48 h, p<0.014, in µM): > 0.005; tumor growth of BRAFi-resistant WM9 xenografts [7]: not affected

Which results are given for `O=C(Nc1ccc2[nH]nc(-c3ccncc3)c2c1)[C@@H]1CCN(CC(=O)N2CCN(c3ccc(-c4ncccn4)cc3)CC2)C1` [SCH77294]?
NAMPT expression (NAMPT [3]; [12]): inhibition of NAMPT expression; ERK phosphorylation levels (ERK): inhibition of ERK phosphorylation levels

What does the source list for `O=C(N/N=C/c1coc2ccccc2c1=O)c1cccnc1` [STAT5 inhibitor]?
NAD+ levels ([1]; A375 and WM9 cells exposed to STAT5 inhibitor, FIG. 3F): decreased; NAMPT expression (NAMPT [3]; BRAF and STAT5 inhibitors, data not shown): decreased; ERK phosphorylation (ERK): did not affect; STAT5 phosphorylation (STAT5): efficiently reduced; BRAFV600E-stimulated NAMPT promoter activity (human NAMPT promoter; 501MEL cells transfected with BRAFV600E vector, 100 μM, 48 h (FIG. 3E)): decreased; basal NAMPT promoter activity (human NAMPT promoter; 501MEL cells, control vector, 100 μM, 48 h (FIG. 3E)): decreased

Which NAMPT expression (NAMPT [3]; [12]) does the source give for `N#CC(=C(/N)Sc1ccccc1N)/C(C#N)=C(\N)Sc1ccccc1N` [U0126] here?
The NAMPT expression was “inhibition of NAMPT expression”.

And the ERK phosphorylation levels (ERK)?
The ERK phosphorylation levels was “inhibition of ERK phosphorylation levels”.
